Data from publication PMC5591292, “Identification of Purple Acid Phosphatases in Chickpea and Potential Roles of CaPAP7 in Seed Phytate Accumulation” (Scientific Reports, 2017).

Molecular target: T1, CaPAP7 (Cicer arietinum, UniProt A0A1S2YHG0)
T1 construct: gene PAP7; ORF PCR product of 1008 bp (about 335 residues) in pET28a, E. coli BL21(DE3) pLysS, Ni-NTA purified, ~38 kDa on SDS-PAGE; signal peptide predicted but protein cytoplasmic
T1 sequence (A0A1S2YHG0 1-335): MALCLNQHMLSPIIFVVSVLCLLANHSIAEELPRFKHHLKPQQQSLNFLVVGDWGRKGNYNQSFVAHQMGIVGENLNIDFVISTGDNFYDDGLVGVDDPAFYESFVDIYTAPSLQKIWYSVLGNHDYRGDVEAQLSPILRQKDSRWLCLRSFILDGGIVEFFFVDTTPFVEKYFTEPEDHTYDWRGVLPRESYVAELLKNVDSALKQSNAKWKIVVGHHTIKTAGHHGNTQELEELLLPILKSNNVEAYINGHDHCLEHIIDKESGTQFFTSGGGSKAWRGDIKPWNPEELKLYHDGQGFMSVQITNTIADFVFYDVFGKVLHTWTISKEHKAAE
Assay: phosphatase activity assay, […] min
Assay type: biochemical
Conditions: 10 mM substrate, 37 °C; maximum activity among substrates tested

O=P(O)(O)O[C@H]1[C@H](OP(=O)(O)O)[C@@H](OP(=O)(O)O)[C@H](OP(=O)(O)O)[C@@H](OP(=O)(O)O)[C@H]1OP(=O)(O)O [phytic acid]
phosphatase activity assay, 30 min: it exhibited maximum catalytic activity for phytic acid
